Laboratory results published in US11298412B2, “Sphingoid compounds for prophylaxis and/or therapy of coronaviridae infection” (priority 2020, dated 2022).
“Also recorded” adds a separate entry of the source.

How the values were obtained:
[1] = tested on: rhinovirus strain RV14 (major strain); assay: Rhinovirus RV14 infection of Hela cells, Trypan Blue cell death; type: cell-based; details: 10 μM and 20 μM, added 10 min before or 60 min or 240 min after infection, 4 days
[2] = tested on: rhinovirus strain 2 (RV2); assay: Intranasal RV2 infection of wild-type mice, Hela cell death bioassay of nasal bone; type: in vivo; details: 10 μL of 100 μM intranasal 10 min before or 1, 4, 8 hrs after infection, 10^3 PFU, sacrificed after 24 hrs
Procedure: Mice were infected with 10^3 PFU rhinovirus strain 2 (RV2) in 10 μL PBS. The virus was applied directly into the nose using a blunt ended, plastic coated 30 g needle, that was inserted into the nose approximately 2 mm. Sphingosine (SPH) was applied into the nose of the wild-type mice at a concentration of 100 μM solution in PBS in a volume of 10 μL. Sphingosine was applied either 10 min prior to rhinovirus infection (b.i.) or 1 hr, 4 hrs and 8 hrs after the infection (a.i.). Controls received the solvent, i.e. octylglucopyranoside (OGP) at the same concentration than used when sphingosine was applied, or were left untreated, but infected. Solutions were applied as in 3.2. Mice were sacrificed after 24 hrs, the nasal bone was removed and incubated for 4 days with Hela cells in a 24 well plate. If the nasal epithelial cells are infected, rhinovirus will be released due to the cytopathic effect of the virus and the in vivo infection can then be determined and quantified by measuring cell death of Hela cells as a bioassay. To this end, dead cells were collected, adherent cells were trypsinized, the fractions were combined, washed twice in H/S (20 mM HEPES, 132 mM NaCl, 5 mM KCl, 1 mM CaCl2), 0.7 mM MgCl2, 0.8 mM MgSO4, pH 7.4), stained with Trypan Blue (0.2% final concentration) and dead cells were counted in aliquots of 500 cells as above. […]

RV1b = assay: Binding of sphingosine to RV1b immobilized on agarose beads, remaining sphingosine by kinase assay; set-up: species or system rhinovirus; details: 250 μM sphingosine in PBS pH 7.0; 4 hrs at 4° C.
Procedure: As a complement to the above study, RV1b (obtained from ATCC) were immobilized to agarose beads and tested for binding of sphingosine (SPH). To this end, we incubated 1 μg/ml anti-RV1b antibodies with 10^6 CFU RV1b for 1 h at 4° C. in H/S, added 50 μL agarose protein A/G beads (Santa Cruz Inc.), incubated for an additional 1 h at 4° C. and washed the immobilized precipitates 5-times in H/S. We resuspended the beads in 500 μL PBS (pH 7.0) containing 250 μM sphingosine. Samples were incubated for 4 hrs at 4° C., pelleted and aliquots of the supernatants were added to 50 mM HEPES (pH 7.4), 250 mM NaCl, 30 mM MgCl2, 0.001 units sphingosine kinase (R&D), 1 mM ATP and 10 μCi [^32P]γATP. The kinase reaction was performed for 1 hr at 30° C., stopped by addition of 20 μl 1N HCl, 800 μl CHCl3/CH3OH/1N HCl (100:200:1, v/v/v), 240 μl CHCl3 and 2 M KCl. Phases were separated, the lower phase was collected, dried, dissolved in 20 μL of CHCl3:CH3OH (1:1, v/v) and separated on Silica G60 thin layer chromatography (TLC) plates using CHCl3/CH3OH/acetic acid/H2O (90:90:15:5, v/v/v/v). The TLC plates were exposed to radiography films, spots were removed from the plates, and the incorporation of [^32P] into sphingosine measured by liquid scintillation counting. Sphingosine was determined using a standard curve of C18-SPH. […]

recombinant ACE2 = biological target: T1, recombinant ACE2 (Homo sapiens, UniProt Q9BYF1); assay: Binding of lipids to immobilized recombinant ACE2; details: sphingosine at 2 μM
T1 construct: purchased Abcam ab273687

[3] = biological target: pp-VSV-SARS-CoV-2 / recombinant ACE2 (Homo sapiens, UniProt Q9BYF1); assay: Binding of pp-VSV-SARS-CoV-2 to immobilized recombinant ACE2, Vero infection with supernatant; details: 1 or 2 μM sphingosine; immobilized Fc-ACE2
pp-VSV-SARS-CoV-2 / recombinant ACE2, sequence (Q9BYF1 18-740): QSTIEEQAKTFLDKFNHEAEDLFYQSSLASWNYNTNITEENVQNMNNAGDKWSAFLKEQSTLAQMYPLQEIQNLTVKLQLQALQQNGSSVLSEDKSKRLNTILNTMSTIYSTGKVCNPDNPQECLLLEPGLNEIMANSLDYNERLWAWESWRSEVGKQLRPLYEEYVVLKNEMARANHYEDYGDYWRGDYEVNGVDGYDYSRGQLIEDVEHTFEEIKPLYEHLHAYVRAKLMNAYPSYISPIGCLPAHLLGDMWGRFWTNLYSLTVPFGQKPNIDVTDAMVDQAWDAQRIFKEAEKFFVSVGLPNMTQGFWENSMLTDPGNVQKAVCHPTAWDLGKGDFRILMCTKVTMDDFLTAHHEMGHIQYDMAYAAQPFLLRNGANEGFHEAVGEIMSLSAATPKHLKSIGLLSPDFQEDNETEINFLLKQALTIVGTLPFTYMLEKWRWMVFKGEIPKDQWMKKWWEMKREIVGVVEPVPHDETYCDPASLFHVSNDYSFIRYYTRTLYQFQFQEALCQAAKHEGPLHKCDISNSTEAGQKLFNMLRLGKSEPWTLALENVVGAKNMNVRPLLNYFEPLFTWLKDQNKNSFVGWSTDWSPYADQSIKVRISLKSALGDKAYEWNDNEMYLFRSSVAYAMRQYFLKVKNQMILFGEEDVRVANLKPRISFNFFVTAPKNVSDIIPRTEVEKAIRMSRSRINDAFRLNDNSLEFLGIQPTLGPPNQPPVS

T1 sequence (Q9BYF1 18-805): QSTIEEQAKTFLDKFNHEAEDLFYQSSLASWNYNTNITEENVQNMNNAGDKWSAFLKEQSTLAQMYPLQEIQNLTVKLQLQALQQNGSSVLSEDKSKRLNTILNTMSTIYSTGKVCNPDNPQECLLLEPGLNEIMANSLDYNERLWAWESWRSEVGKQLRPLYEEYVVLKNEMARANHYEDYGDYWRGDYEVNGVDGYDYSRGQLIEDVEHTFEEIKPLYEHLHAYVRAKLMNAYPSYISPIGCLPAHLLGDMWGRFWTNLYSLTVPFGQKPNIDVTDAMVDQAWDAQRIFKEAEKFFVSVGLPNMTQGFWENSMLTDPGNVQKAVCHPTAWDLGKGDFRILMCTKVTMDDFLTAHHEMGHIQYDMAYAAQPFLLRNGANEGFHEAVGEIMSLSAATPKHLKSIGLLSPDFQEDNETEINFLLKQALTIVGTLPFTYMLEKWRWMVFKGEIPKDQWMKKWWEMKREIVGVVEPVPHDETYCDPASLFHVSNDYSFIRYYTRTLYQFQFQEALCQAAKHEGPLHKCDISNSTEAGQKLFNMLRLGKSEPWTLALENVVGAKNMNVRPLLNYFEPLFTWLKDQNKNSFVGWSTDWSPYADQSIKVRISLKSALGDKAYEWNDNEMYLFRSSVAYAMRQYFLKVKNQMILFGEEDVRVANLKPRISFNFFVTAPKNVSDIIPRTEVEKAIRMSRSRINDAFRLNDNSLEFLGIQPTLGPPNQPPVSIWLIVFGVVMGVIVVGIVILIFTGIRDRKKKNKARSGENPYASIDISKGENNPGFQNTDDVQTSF

Structure (SMILES): CCCCCCCCCCCCC/C=C/[C@@H](O)[C@@H](N)CO [sphingosine, (2S,3R,4E)-2-amino-4-octadecene-1,3-diol]
- infection with RV14 (percentage of dead cells) [1]: prevented the infection; also recorded: prevention of RSV2 and RSV14 infection
- infection with RV2 in vivo (percentage of dead Hela cells) [2]: prevented; also recorded: prevents infection by RSV2
- binding of sphingosine to RV1b-coupled agarose beads (remaining sphingosine in the supernatant) (RV1b): efficiently bind sphingosine
- binding of lipid to immobilized recombinant ACE2 (beads) (recombinant ACE2): revealed a binding of sphingosine to ACE2; also recorded: selectively couples to beads with bound recombinant ACE2; also recorded: binds the ACE2 receptor
- binding of intact pp-VSV-SARS-CoV-2 to recombinant ACE2 [3]: abrogated binding of intact pp-VSV-SARS-CoV-2 to recombinant ACE2; also recorded: prevents binding of SARS-CoV-2 spike protein to the ACE2 receptor
